Experimental data reported in patent US11198673B2, “Therapeutic compounds and compositions” (eXIthera Pharmaceuticals, Inc., priority 2014, dated 2021).
pIC50: −log10 of the molar value.

Assays:
[1] = β-Lactam stability in rat plasma; type: in vitro ADME; details: normal rat plasma, room temperature; read-out: Rat Plasma Stability (T1/2; min)
Procedure, shortened: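 Compounds incubated in normal rat plasma at room temperature, sampled into acetonitrile from 2 to 480 min. Supernatants analysed by HPLC-MS on C18, extracted ion chromatograms of parent and parent+18 (H2O adduct) integrated; T½ = ln(2)/k from single-phase exponential decay fit.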

physchem = type: physicochemical; details: pH 7.4, aqueous buffer, kinetic from dmso stock
Procedure: The test compound was prepared at 200 μM in PBS from a 10 mM DMSO stock solution. The final DMSO concentration was 2%. The PBS buffer samples were mixed thoroughly followed by incubation at room temperature for 24 h. At the end of the incubation, the PBS buffer samples were centrifuged and supernatants analyzed by HPLC.

human Factor XIa = molecular target: T1, human Factor XIa (Homo sapiens, UniProt P03951); experiment: Factor XIa enzyme inhibition assay (IC50, purified enzyme); type: biochemical; details: purified enzyme 0.25 nM, substrate 50 μM; read-out: Potency hFXIa IC50
T1 construct: Enzyme: Factor XIa; 0.25 μM in 50% glycerol (20 μg/mL)
T1 sequence (P03951 388-625 limits assumed): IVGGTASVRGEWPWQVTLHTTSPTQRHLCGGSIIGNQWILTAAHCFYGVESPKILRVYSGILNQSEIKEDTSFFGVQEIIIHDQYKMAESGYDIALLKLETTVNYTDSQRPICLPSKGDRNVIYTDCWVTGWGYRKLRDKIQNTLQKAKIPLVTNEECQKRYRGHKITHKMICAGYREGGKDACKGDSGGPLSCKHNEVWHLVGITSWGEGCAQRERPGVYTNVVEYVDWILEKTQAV
T1 sequence (P03951 19-387 partner limits assumed): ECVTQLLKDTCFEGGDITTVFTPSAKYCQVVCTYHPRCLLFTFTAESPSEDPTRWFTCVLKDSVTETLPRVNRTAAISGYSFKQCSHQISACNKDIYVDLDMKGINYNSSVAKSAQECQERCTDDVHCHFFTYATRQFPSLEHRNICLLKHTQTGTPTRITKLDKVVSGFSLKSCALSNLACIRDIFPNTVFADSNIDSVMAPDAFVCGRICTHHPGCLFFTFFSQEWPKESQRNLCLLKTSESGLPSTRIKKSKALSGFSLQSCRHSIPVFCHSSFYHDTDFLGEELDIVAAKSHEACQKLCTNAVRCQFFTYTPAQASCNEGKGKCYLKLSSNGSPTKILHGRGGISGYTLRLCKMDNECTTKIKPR
Procedure, shortened: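 Fluorogenic Glp-Pro-Arg-AMC cleavage, 50 μM substrate, 0.25 nM enzyme, in 20 mM Hepes pH 7.4, 150 mM NaCl, 0.02% Tween 20. Serial two-fold compound dilutions from starting concentrations of 20, 2 and 0.2 μM. Read every minute for 30 min at 30° C; IC50 from a four-parameter fit of dose-response.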

in vitro [2] = details: both, human, plasma, pH 7.4
Procedure: The following procedure was used to determine the plasma protein binding of a test compound in pooled plasma from human (mixed gender) via equilibrium dialysis in a 96-well plate format. The dialysate compartment is loaded with phosphate-buffered saline (pH 7.4) and the sample side is loaded with plasma spiked with the test compound at a concentration of 10 μM. After loading, samples are covered and incubated for 4 hours at 37° C. After incubation, each compartment is sampled, diluted with acetonitrile/buffer and centrifuged. The supernatants are analyzed by HPLC-MS/MS. The amount measured in the plasma compartment includes both free and bound drug, while that on the buffer side represents free drug only; the differences are used to calculate the percentage plasma protein bound.

Factor Xa = molecular target: T2, Factor Xa (Homo sapiens, UniProt P00742); experiment: Dose response assay for protease inhibitors: Factor Xa (FXIa fold selectivity); type: biochemical; details: fold selectivity for FXIa over Factor Xa
T2 construct: Factor Xa; 0.2 μM in 50% glycerol (9.2 μg/mL)
T2 sequence (P00742 235-488 limits assumed): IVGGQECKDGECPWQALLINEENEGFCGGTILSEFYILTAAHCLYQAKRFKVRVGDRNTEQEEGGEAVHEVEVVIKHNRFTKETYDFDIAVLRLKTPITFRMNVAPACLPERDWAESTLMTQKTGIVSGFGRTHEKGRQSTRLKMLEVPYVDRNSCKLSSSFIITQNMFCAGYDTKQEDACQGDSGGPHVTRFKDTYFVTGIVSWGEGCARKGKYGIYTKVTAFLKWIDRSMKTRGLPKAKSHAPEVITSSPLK
T2 sequence (P00742 41-179 partner limits assumed): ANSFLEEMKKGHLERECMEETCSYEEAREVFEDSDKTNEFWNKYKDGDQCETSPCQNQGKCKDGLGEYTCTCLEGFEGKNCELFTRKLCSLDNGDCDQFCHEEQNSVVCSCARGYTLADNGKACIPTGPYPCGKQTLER

Thrombin = molecular target: T3, Thrombin (Homo sapiens, UniProt P00734); experiment: Dose response assay for protease inhibitors: thrombin (FXIa fold selectivity); type: biochemical; details: fold selectivity for FXIa over thrombin
T3 construct: Thrombin; 0.2 μM in 50% glycerol (7.34 μg/mL)

Trypsin = experiment: Dose response assay for protease inhibitors: trypsin (FXIa fold selectivity); type: biochemical; details: fold selectivity for FXIa over trypsin
in vitro [3] = details: both, human, microsomes, pH 7.4
Procedure: The following procedure was used to determine the stability of a test compound in pooled liver microsomes from human (mixed gender) in 96-well plate format. The test compound was quantified at five time points by HPLC-MS/MS analysis. The final microsomal protein concentration in the assay was 0.1 mg/mL. […] The test compound was pre-incubated with human liver microsomes in phosphate buffer (pH 7.4) for 5 min in a 37° C. shaking waterbath. The reaction was initiated by adding NADPH-generating system and incubated for 0, 15, 30, 45, and 60 minutes. The reaction was stopped by transferring the incubation mixture to acetonitrile/methanol. Samples were then mixed and centrifuged and the supernatants used for HPLC-MS/MS analysis. Peak areas corresponding to the test compound were recorded. The compound remaining was calculated by comparing the peak area at each time point to time zero.

| half-life [1] | solubility at 4 h (physchem) | pIC50 (human Factor XIa) | fraction unbound at 4 h, 10 µM (in vitro [2]) | FXIa Fold Selectivity FXa (Factor Xa) | FXIa Fold Selectivity Thrombin (Thrombin) | half-life at 0.1 µM (in vitro [3]) | SMILES | FXIa Fold Selectivity Trypsin (Trypsin) |
| --- | --- | --- | --- | --- | --- | --- | --- | --- |
| > 1.67 h | > 100 µM | 6.00 to 7.00 | < 0.02 | G (“G” indicates 1-500) | G (“G” indicates 1-500) | 0.5 to 1 h | O=C(O)[C@@H]1[C@@H](CCc2cccc(Cl)c2)C(=O)N1C(=O)N[C@@H](C1CCCCC1)C(F)(F)F [Example 134] | G (“G” indicates 1-500) |
| > 1.67 h | > 100 µM | 6.00 to 7.00 | 0.02 to 0.1 | G (“G” indicates 1-500) | H (“H” indicates 500-1000) | > 1 h | C[C@@H](NC(=O)N1C(=O)[C@H](Cc2ccncc2)[C@H]1C(=O)O)c1ccc2c(c1)OC(F)(F)O2 [Example 169] | G (“G” indicates 1-500) |
